One may read the pIC50 as the IC50 on a negative log10 scale, so that one unit is a factor of ten.

Consider four compounds from patent US8623857B2, “N-phenyl imidazole carboxamide inhibitors of 3-phosphoinositide-dependent protein kinase-1” (Merck Sharp & Dohme Corp., priority 2010, dated 2014).

For one test, the target named is T1, PDK-1 (Homo sapiens, UniProt O15530).
T1 sequence (O15530 1-556): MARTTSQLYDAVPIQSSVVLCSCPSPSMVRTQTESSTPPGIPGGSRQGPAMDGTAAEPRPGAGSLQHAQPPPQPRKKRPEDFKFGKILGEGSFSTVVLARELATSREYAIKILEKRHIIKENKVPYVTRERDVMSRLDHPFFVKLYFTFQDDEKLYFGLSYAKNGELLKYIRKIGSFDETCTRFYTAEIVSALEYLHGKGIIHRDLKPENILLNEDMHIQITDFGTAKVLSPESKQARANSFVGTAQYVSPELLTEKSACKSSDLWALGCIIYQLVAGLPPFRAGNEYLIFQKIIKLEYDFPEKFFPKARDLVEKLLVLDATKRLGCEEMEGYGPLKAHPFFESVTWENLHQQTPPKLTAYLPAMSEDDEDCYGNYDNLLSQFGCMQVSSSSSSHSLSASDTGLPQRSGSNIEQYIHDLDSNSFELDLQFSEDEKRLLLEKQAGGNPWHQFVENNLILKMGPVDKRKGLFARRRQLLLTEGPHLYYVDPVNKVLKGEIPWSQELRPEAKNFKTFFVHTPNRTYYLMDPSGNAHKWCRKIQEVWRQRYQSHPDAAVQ
Particulars: in vitro; cited from earlier work.

For the next test, the target named is T2, recombinant human PDK1 (Homo sapiens, UniProt O15530).
T2 construct: containing amino acids 51-556 of the human PDK1 enzyme; made in house; host or cells: Sf9 insect cells
T2 sequence (O15530 51-556): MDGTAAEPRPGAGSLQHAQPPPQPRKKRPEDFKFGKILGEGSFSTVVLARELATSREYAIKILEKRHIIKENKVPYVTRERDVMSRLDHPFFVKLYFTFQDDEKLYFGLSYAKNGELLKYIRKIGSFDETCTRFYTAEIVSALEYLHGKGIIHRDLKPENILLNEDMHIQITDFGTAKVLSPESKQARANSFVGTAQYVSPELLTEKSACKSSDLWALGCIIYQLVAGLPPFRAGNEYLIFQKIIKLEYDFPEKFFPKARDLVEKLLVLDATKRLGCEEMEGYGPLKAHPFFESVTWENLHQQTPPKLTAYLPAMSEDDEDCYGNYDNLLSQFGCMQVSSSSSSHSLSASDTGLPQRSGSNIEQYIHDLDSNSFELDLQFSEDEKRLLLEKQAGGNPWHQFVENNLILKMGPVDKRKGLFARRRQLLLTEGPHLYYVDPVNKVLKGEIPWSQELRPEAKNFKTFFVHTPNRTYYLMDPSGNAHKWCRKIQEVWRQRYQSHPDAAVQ
Nature of the test: PDK1 IMAP fluorescence polarization assay (inhibition of peptide substrate phosphorylation). As to conditions: Table 6; 10 nM PDK1 enzyme, 100 nM peptide substrate, 100 nM PIFtide, 2.5 uM ATP, 1.5 hours. The class given is biochemical. (Polarisation of emitted light reports the rotation of a fluorescent probe.)

pIC50: −log10 of the molar value.

For the compound “PIFtide: "The peptide sequence of PIFtide is RREPRILSEEEQEMFRDFDYIADWC (SEQ ID NO:2)"; "interacts with PDK-1 and is derived from PRK2 kinase" (PIFtide)”, in the test with PDK-1, the “enhance PDK-1 phosphorylation of substrates” value is on record as “approximately 4 fold”.

Consider `Cc1cc(-c2c[nH]c(C(=O)Nc3cccc(F)c3N3CCC(C(=O)N4CC[C@H](F)C4)CC3)n2)ccn1` [Compound 64, N-[3-fluoro-2-[4-[(3(S)-fluoro-1-pyrrolidinyl)carbonyl]-1-piperidinyl]phenyl]-4-(2-methyl-4-pyridinyl)-1H-imidazole-2-carboxamide], for which the pIC50 on recombinant human PDK1 is 5.30 to 6.00.

With `Cc1cc(-c2c[nH]c(C(=O)Nc3cccc(F)c3N3CC4CNCC4C3)n2)ccn1` (stereo not shown) [Compound 58, N-[3-fluoro-2-(hexahydropyrrolo[3,4-c]pyrrol-2(1H)-yl)phenyl]-4-(2-methyl-4-pyridinyl)-1H-imidazole-2-carboxamide], the pIC50 at recombinant human PDK1 is 5.30 to 6.00.

As to `Cc1cc(-c2c[nH]c(C(=O)Nc3cccc(F)c3N3CCC[C@@H](N)C3)n2)cc(N)n1` [Compound 24, 4-(2-amino-6-methyl-4-pyridinyl)-N-[2-(3(R)-amino-1-piperidinyl)-3-fluorophenyl]-1H-imidazole-2-carboxamide], the pIC50 at recombinant human PDK1 is 7.30 to 9.00.
